Data: US10716769B2 (GUANGZHOU JTREAT BIOSCI. LTD., priority 2015, dated 2020)

Experiments:
MCF7 = experiment: MTT in vitro tumor cell inhibition; type: cell-based; conditions: 3 days
Text: (§1) An effective amount of the above compounds and/or the compositions containing the same used as an active ingredient have an effect on inhibiting the tumor cells. The present invention detects the inhibitory effect of the hydroxy-substituted benzophenone compounds on the proliferation of the in vitro cultured human tumor cells by the methylthiazolyl tetrazolium method.
(§2) The method is used to detect cell viability. […] Particles can be dissolved by dimethyl sulfoxide (DMSO) isopropyl alcohol or 10% acidified SDS (sodium dodecyl sulfate), and a microplate reader is used to measure the OD value at A570 wavelength, which indirectly reflects the number of live cells. The method is used for detection of the cytokines bioactivity, as well as anti-tumor drugs and tumor radiosensitivity and cytotoxicity test, and has the characteristics of being simple, fast, economical, sensitive and accurate and having good reproducibility and no need to use radionuclides. This method has been widely used in screening preclinical anticancer drugs and detecting the drug sensitivity of fresh tumor cells. The method is as below:
(§3) (1) The tumor cell suspension prepared by 0.25% of trypsin digestion and adjusted to a cell concentration of 10^5/ml with RPMI1640 containing 10% fetal calf serum is added to a 96-well plate with 100 μl for each well, cultured 24 hours, and then different dosages of drugs are added with 100 μl/well, for which, the negative control groups, positive control groups and withering wells are set, and 4 parallel wells are set for each group.
(§4) (2) They are continually cultured in incubator containing 5% of CO2 at 37° C. for 24 to 48 hours. MTT solution (5 g/L) is added to each well before the termination of the experiment. The OD value at A570 nm is detected by microplate reader. The OD value at A570 of the negative group without the addition of drugs is taken as a control. The cell survival rate and cell inhibition rate of drugs are calculated according to the following formula: Cell survival rate=(OD value of test group/OD value of control group)×100% Cell inhibition rate (%)=(OD value of the control group−OD value of the test group/(OD value of the control group−OD value of the blank group)
(§5) The tumor cell lines are cultured in RPMI-1640 medium containing 15% of the newborn bovine serum in a conventional manner, placed in the humidification incubator containing 5% of CO2 for being cultured at 37° C., and are observed for growth by an inverted microscope. A subculture is conducted every about 3-5 days, the cells in logarithmic growth phase are adopted to be digested with 0.25% of trypsin, and the serum-free RPMI-1640 medium is used for culturing the cell suspension; the blood counting plate makes counting, the trypan blue exclusion tests the cell activity, and the cell viability>95% is used for formal tests.
Liquid preparation: the compounds are labeled with the codes respectively, DMSO is used to dissolve each compound, the bacterial filter is used to remove bacteria, and each compound is prepared into 10^−4 g/ml, 10^−5 g/ml, 10^−6 g/ml and preserved at 4° C. for use.
MTT method: a bottle of 4-5 days old cells in the exponential growth phase are adopted to be cultured, and added with an appropriate amount of Trypsin-EDTA solution, so as to enable the adherent cells to fall off, and are prepared with 10 ml of RPMI-1640 medium containing 15% newborn bovine serum into suspensions; after stained with trypan blue, the cell number is counted on the blood counting plate to ensure that the live cells is more than 97%; the cell suspensions are diluted by the complete medium so that each […] of solution contains 5000-400000 cells; the 96-well plate is used with 200 μl of cell suspensions added into each. The 96-well plate is placed at 37° C. in 5% of CO2 containing incubator for 24 hours; the test compounds are diluted at 3 dilutions with 5 wells in parallel for each concentration; the serum-free RPMI1640 is used as the control group. […]

[1] = test system: human umbilical vein endothelial cell line (ECV304); experiment: MTT in vitro cell inhibition; type: cell-based; conditions: 3 days
Text: as §1, §2, §3, §4
(§6) 1. Tumor cell lines: human glioma cell line (U251), human colon cancer cell line (LOVO), human hepatoma cell line (HepG2), human lung cancer cell line (PC84045), human endometrial carcinoma cell line (JEC), human renal carcinoma (GRC), human gastric cancer cell line (MCG804), human cervical cancer cell line (HeLa), human hepatocellular carcinoma cell line (BEL-7402) and human umbilical vein endothelial cell line (ECV304) purchased from Animal Experimental Center of Zhongshan Medical College, and preserved by the present laboratory.
as §5
(§7) Liquid preparation: the compounds are labeled with the codes respectively, DMSO is used to dissolve each compound, the bacterial filter is used to remove bacteria, and each compound is prepared into 10^−4 g/ml, 10^−5 g/ml, 10^−6 g/ml and preserved at 4° C. for use. […]

[2] = test system: human lung cancer cell line (PC84045); experiment: MTT in vitro tumor cell inhibition; type: cell-based; conditions: 3 days
Text: as §1, §2, §3, §4, §6, §5, §7

[3] = test system: human hepatoma cell line (HepG2); experiment: MTT in vitro tumor cell inhibition; type: cell-based; conditions: 3 days
Text: as §1, §2, §3, §4, §6, §5, §7

[4] = test system: human gastric cancer cell line (MCG804); experiment: MTT in vitro tumor cell inhibition; type: cell-based; conditions: 3 days
Text: as §1, §2, §3, §4, §6, §5, §7

[5] = test system: human cervical cancer cell line (HeLa); experiment: MTT in vitro tumor cell inhibition; type: cell-based; conditions: 3 days
Text: as §1, §2, §3, §4, §6, §5, §7

[6] = test system: human endometrial carcinoma cell line (JEC); experiment: MTT in vitro tumor cell inhibition; type: cell-based; conditions: 3 days
Text: as §1, §2, §3, §4, §6, §5, §7

[7] = test system: human glioma cell line (U251); experiment: MTT in vitro tumor cell inhibition; type: cell-based; conditions: 3 days
Text: as §1, §2, §3, §4, §6, §5, §7

[8] = test system: human colon cancer cell line (LOVO); experiment: MTT in vitro tumor cell inhibition; type: cell-based; conditions: 3 days; for Inhibitory rate %: 10^−4 g/ml
Text: as §1, §2, §3, §4, §6, §5, §7

HPV 6/11 Virus = experiment: HPV detection via fluorescence quantitative PCR in genital warts tissue homogenate; parameters: species or system human papillomavirus; conditions: genital warts tissue homogenate, 37° C., 24 hours, FQ-PCR
Text: (§8) The aforesaid compounds and/or compositions containing the same are effective in killing and inhibiting HPV type 6/11 and type 16/18, which can be used for the preparation of drugs for preventing and treating viral infection of HPV, preventing and treating genital warts, flat warts, common warts, vaginitis, cervicitis and cervical erosion, cervical cancer, esophageal cancer and other cancers caused by HPV. The present invention observes the effect of active ingredients and products by the detection of the change in the amount of the HPV virus through the real-time quantitative PCR. Such method has been applied in several publications (Youling C A I, et al., Chinese STD/AIDS, 2002, 8: 2,108; Yuansheng W U, Ruijiang F A N, et al., Practical Application of Integrated Chinese and Western Medicine in Clinics, 2003, 3: 2,1).
(§9) The microemulsion obtained in example 1 is used as a test sample and saline for blank control.
(§10) The standard clinical genital warts specimens from a variety of patients after being cut off are washed with saline for removing bloods, and are cut into pieces under aseptic conditions, added with saline in 3 times of their volumes to be uniformly mixed, grinded into homogenate and placed at −40° C. for use.
(§11) Each test sample drug microemulsion and the saline of 50 μl for each are respectively added with 50 μl the genital warts tissue homogenate, and incubated at 37° C. for 24 hours; tests are performed according to the operation procedure provided by the HPV6, 11 and 16, 18 type FQ-PCR diagnostic kits provided by Da'an Gene Diagnostic Center. 0.2 ml of DNA extracted by the conventional alkaline lysis method is put into the thin-walled reaction tube, and simultaneously added with primers, F-PROBE, DNTP, DNA polymerase, buffers and the like in a certain concentration; ABI PRISM™ 7700 fluorescence quantitative PCR amplifier is used to repeat 40 circulations each with 45 s at 93° C. and 120 s at 55° C. after predegeneration at 93° C. for 2 mins; the quantitative results are automatically analyzed by the computer software to calculate the quantitative results of the initial copy number. The data are shown in Table 2 (completed by Da'an Gene Clinical Test Center).

HPV16/18 = experiment: as above; parameters: species or system human papillomavirus; conditions: genital warts tissue homogenate, 37° C., 24 hours, FQ-PCR
Text: as §8, §9, §10, §11

SMILES	Inhibitory rate % (MCF7; MCF7, 10^−4 g/ml) [%]	Inhibitory rate % ([1]; ECV304, 10^−4 g/ml) [%]	Inhibitory rate % ([1]; ECV304, 10^−5 g/ml) [%]	Inhibitory rate % ([2]; PC84045, 10^−4 g/ml) [%]	Inhibitory rate % ([2]; PC84045, 10^−5 g/ml) [%]	Inhibitory rate % ([2]; PC84045, 10^−6 g/ml) [%]	Inhibitory rate % ([3]; HepG2, 10^−4 g/ml) [%]	Inhibitory rate % ([3]; HepG2, 10^−5 g/ml) [%]	Inhibitory rate % ([4]; MCG804, 10^−4 g/ml) [%]	Inhibitory rate % ([5]; 10^−4 g/ml) [%]	Inhibitory rate % ([6]; 10^−4 g/ml) [%]	Inhibitory rate % ([6]; 10^−5 g/ml) [%]	Inhibitory rate % ([7]; U251, 10^−4 g/ml) [%]	Inhibitory rate % [8] [%]	Inhibitory rate, sensitivity class ([8]; 10^−5 g/ml)	Inhibitory rate, sensitivity class ([8]; 10^−6 g/ml)	further results
O=C(c1ccccc1)c1ccc(O)cc1O [2,4-dihydroxybenzophenone]	87.60	96.17	73.12	92.65	89.88	44.39	94.78	66.74	92.54	95.65	93.58	62.30	85.31	93.80	insensitive (<30% means insensitive)	insensitive (<30% means insensitive)	Inhibitory rate % (MCF7; MCF7, 10^−5 g/ml): 68.62%; Inhibitory rate % (MCF7; MCF7, 10^−6 g/ml): 28.57%; Inhibitory rate % ([1]; ECV304, 10^−6 g/ml): 45.37%; Inhibitory rate % ([3]; HepG2, 10^−6 g/ml): 58.63%; Inhibitory rate % ([4]; MCG804, 10^−5 g/ml): 86.35%; Inhibitory rate % ([4]; MCG804, 10^−6 g/ml): 41.35%; Inhibitory rate % ([5]; 10^−5 g/ml): 48.96%; Inhibitory rate % ([5]; 10^−6 g/ml): 37.32%; Inhibitory rate % ([6]; 10^−6 g/ml): 32.56%; Inhibitory rate % ([7]; U251, 10^−5 g/ml): 67.25%; Inhibitory rate % ([7]; U251, 10^−6 g/ml): 31.21%
O=C(c1ccc(O)c(O)c1)c1cc(O)c(O)c(O)c1O [2,3,3′,4,4′,5-hexahydroxybenzophenone]	65.36	70.81	43.47	80.43	70.86	41.369	77.03	55.49	71.91	58.94	79.84	32.36	64.27	75.61	insensitive (<30% means insensitive)	insensitive (<30% means insensitive)	Inhibitory rate, sensitivity class (MCF7; MCF7, 10^−5 g/ml): insensitive (<30% means insensitive); Inhibitory rate, sensitivity class (MCF7; MCF7, 10^−6 g/ml): insensitive (<30% means insensitive); Inhibitory rate, sensitivity class ([1]; ECV304, 10^−6 g/ml): insensitive (<30% means insensitive); Inhibitory rate, sensitivity class ([3]; HepG2, 10^−6 g/ml): insensitive (<30% means insensitive); Inhibitory rate, sensitivity class ([4]; MCG804, 10^−5 g/ml): insensitive (<30% means insensitive); Inhibitory rate, sensitivity class ([4]; MCG804, 10^−6 g/ml): insensitive (<30% means insensitive); Inhibitory rate, sensitivity class ([5]; 10^−5 g/ml): insensitive (<30% means insensitive); Inhibitory rate, sensitivity class ([5]; 10^−6 g/ml): insensitive (<30% means insensitive); Inhibitory rate, sensitivity class ([6]; 10^−6 g/ml): insensitive (<30% means insensitive); Inhibitory rate, sensitivity class ([7]; U251, 10^−5 g/ml): insensitive (<30% means insensitive); Inhibitory rate, sensitivity class ([7]; U251, 10^−6 g/ml): insensitive (<30% means insensitive)
CCCOC(=O)c1cc(O)c(O)c(O)c1 [Propyl gallate, propyl 3,4,5-trihydroxybenzoate, reference compound]																	HPV 6/11 Virus (HPV 6/11 Virus): 0 copy/ml; HPV16/18 (HPV16/18): 0 copy/ml
